Measurements: PubChem BioAssay (NCI)
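Cultured in 96-well plates, cells were exposed to test compound for 48 hours across five concentrations. GI50 marks 50% less growth. TGI is the concentration that stops growth completely.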

Columns and labels:
Experiment in all cases: NCI tumour cell line growth inhibition, 48 h
SNB-78 CNS = test system: SNB-78 CNS
RXF-631 renal = test system: RXF-631 renal
XF 498 CNS = test system: XF 498 CNS
HOP-18 NSCLC = test system: HOP-18 NSCLC
DMS 114 small cell lung = test system: DMS 114 small cell lung
DMS 273 small cell lung = test system: DMS 273 small cell lung
KM20L2 colon = test system: KM20L2 colon
LXFL 529 NSCLC = test system: LXFL 529 NSCLC
P388 leukemia = test system: P388 leukemia
SN12K1 renal = test system: SN12K1 renal
MDA-N = test system: MDA-N
P388/ADR leukemia = test system: P388/ADR leukemia

| SMILES | TGI (SNB-78 CNS) [µM] | TGI (XF 498 CNS) [µM] | TGI (HOP-18 NSCLC) [µM] | TGI (DMS 114 small cell lung) [µM] | TGI (DMS 273 small cell lung) [µM] | TGI (KM20L2 colon) [µM] | TGI (LXFL 529 NSCLC) [µM] | TGI (MDA-N) [µM] | also measured |
| --- | --- | --- | --- | --- | --- | --- | --- | --- | --- |
| O=S(=O)(c1ccccc1)N1CCC1c1ccccc1 (stereo not drawn) | > 100 | > 100 | > 100 | > 100 | > 100 | > 100 |  |  | TGI (RXF-631 renal): > 100 µM |
| CCOP(=O)(OCC)C(C(=O)OC)C(=O)C(=O)Nc1cccc([N+](=O)[O-])c1 (stereo not drawn) | > 100 | > 100 | > 100 | > 100 | > 100 | > 100 | > 100 |  | TGI (RXF-631 renal): > 100 µM |
| CN(c1ccccc1)c1nc(=[N+](C)C)ss1 | > 100 | > 100 | > 100 | > 100 | > 100 | > 100 | > 100 |  |  |
| Cc1cc(C)c2c(c1)CSCc1cc(C)cc(C)c1-2 | 62 |  | > 100 | 69.9 | > 100 | > 100 | > 100 |  |  |
| CN(C)CCN1C(=O)c2cccc3cc(N)cc(c23)C1=O |  | 3.64 | 33.7 | 12.7 | 8.22 | 23.5 |  | 13.4 | TGI (P388 leukemia): 12.1 µM; TGI (SN12K1 renal): 7.43 µM; TGI (P388/ADR leukemia): 11.8 µM |
| O=C(Nc1ccc(Nc2ccc3c(c2)C(=O)c2ccccc2C3=O)c2c1C(=O)c1ccccc1C2=O)c1ccccc1 |  |  |  |  |  |  |  | > 100 |  |
| O=C1/C(=C/c2cc(O)c(O)c(O)c2)Oc2cc(O)cc(OC3OC(CO)C(O)C(O)C3O)c21 (stereo not drawn) | 68.5 |  | > 100 | > 100 | 3.67 | 74 | 28 |  |  |
| CC(C)(Sc1cc(C(C)(C)C)c(O)c(C(C)(C)C)c1)Sc1cc(C(C)(C)C)c(O)c(C(C)(C)C)c1 |  |  |  |  |  |  |  | > 100 |  |
| O=c1oc2ccccc2cc1P(=O)(O)O |  |  |  |  |  |  |  | > 100 |  |
| OC(c1ccccc1)c1c(-c2ccccc2)[nH]c(-c2ccccc2)c1C(O)c1ccccc1 (stereo not drawn) |  |  |  |  |  |  |  | 7.2 |  |
| C[C@]12CC[C@H]3[C@@H](CCC4=CC(=O)CC[C@@]43C)[C@]1(O)CC[C@]2(O)C(=O)CO |  |  |  |  |  |  |  | > 100 |  |
| O=c1c(-c2cccc3ccccc23)c(-c2cccc3ccccc23)c1=O | > 100 | 99 | > 100 | 13.2 | 13.2 | 1.59 | > 85 |  |  |
| O=C(c1ccccc1)c1nc2ccc(Cl)cc2cc1C(Br)Br |  | 2.5 | 1.31 | 4.02 | 0.966 | 0.808 | 0.77 |  |  |
| COc1cc(OC)c(OC)cc1/C=C/c1ccccn1 |  |  |  |  |  |  |  | > 10 |  |
| Clc1ccc(NCNC2Nc3ccccc3N2)cc1Cl |  |  |  |  |  |  |  | > 100 |  |
| O=c1c2ccccc2c(=O)n2n1-c1cccc(c1)CSSCc1cccc-2c1 | > 100 | > 100 | > 100 | > 100 | > 100 | > 100 | > 100 |  | GI50 (RXF-631 renal): > 100 µM; TGI (RXF-631 renal): > 100 µM; GI50 (LXFL 529 NSCLC): > 100 µM; GI50 (HOP-18 NSCLC): > 100 µM; GI50 (DMS 114 small cell lung): > 100 µM; GI50 (DMS 273 small cell lung): > 100 µM |
| CC1COS(=O)N1c1ccccc1 (stereo not drawn) |  | > 100 | > 100 | > 100 | > 100 | > 100 | > 100 |  |  |
| CCOc1ccc2c(c1)[n+]([O-])c(C(N)=O)c(N)[n+]2[O-] | > 100 | > 100 | > 100 | > 100 | > 100 | > 100 | > 100 |  |  |
| O=C1C2C3SC(c4cc5ccccc5cc43)C2C(=O)N1c1ccccc1 (stereo not drawn) | > 100 |  | > 100 | > 100 | > 100 | > 100 | > 100 |  | TGI (RXF-631 renal): > 100 µM |
| O=C1CN=C(c2ccccc2)c2ccncc2N1 | > 100 | > 100 | > 100 | > 100 | > 100 | > 100 | > 100 |  | TGI (RXF-631 renal): > 100 µM |

| SMILES | TGI (SNB-78 CNS) [µM] | TGI (XF 498 CNS) [µM] | TGI (HOP-18 NSCLC) [µM] | TGI (DMS 114 small cell lung) [µM] | TGI (DMS 273 small cell lung) [µM] | TGI (KM20L2 colon) [µM] | TGI (LXFL 529 NSCLC) [µM] | TGI (MDA-N) [µM] | also measured |
| --- | --- | --- | --- | --- | --- | --- | --- | --- | --- |
| CC(NC(=O)c1ccc(Cl)c(Cl)c1)c1ccc(-c2ccccc2)cc1 (stereo not drawn) |  |  |  |  |  |  |  | > 100 |  |
| CSC(=Nc1ccc([N+](=O)[O-])cc1C#N)NC(=O)c1ccccc1 | > 100 | > 100 | > 100 | > 100 |  | > 100 | > 100 |  | TGI (RXF-631 renal): > 100 µM |
| O=C(O)C1CCCN1 (stereo not drawn) |  |  |  |  |  |  |  | > 100 |  |
| O=c1cc(-c2cccc(Cl)c2)[nH]c2cc3c(cc12)OCO3 |  | 13.8 | 34.4 | 4.23 | 75 |  | 2.73 | 0.158 |  |
| O=C(O)c1ccccc1NS(=O)(=O)c1ccc(Cl)cc1 | > 100 | > 100 | > 100 | > 100 | > 100 | > 100 | > 100 |  |  |
| CN(N=O)C(=O)NC(CCCCNC(=O)OCc1ccccc1)C(=O)OCc1ccccc1 (stereo not drawn) | 60.4 | 30.6 |  | 72.6 | > 100 | > 100 | 94 |  | TGI (RXF-631 renal): 44.8 µM |
| CC(C)N1CCOC(c2ccc(O)c(O)c2)C1 (stereo not drawn) | > 100 | > 100 |  | > 100 | > 100 | > 100 | > 100 |  | TGI (RXF-631 renal): > 100 µM |
| CCN(CC)CC(C(=O)Nc1c(C)cccc1C)/C(C)=N\NC(=S)NN (stereo not drawn) |  | > 100 |  |  | > 100 | > 100 | > 100 |  | TGI (RXF-631 renal): > 100 µM |
| O=C(O)c1c2c(c(O)c3c1CN(C1CCCCC1)CO3)OCN(C1CCCCC1)C2 |  |  |  |  |  |  |  | > 100 |  |
| Cc1cccc(-c2nc(=S)[nH][nH]2)c1 | > 100 | > 100 | > 100 |  | > 100 | > 100 | > 100 |  | TGI (RXF-631 renal): > 100 µM |
| COc1ccc2c(c1[N+](=O)[O-])CC[C@@H]1[C@@H]2CC[C@]2(C)C(=O)CC[C@@H]12 | 25 | 25 | > 25 | 25 | > 25 | > 25 |  | > 1000 | TGI (P388 leukemia): > 25 µM; TGI (SN12K1 renal): > 25 µM; GI50 (MDA-N): > 25 µM; TGI (P388/ADR leukemia): 25 µM |
| O=C1c2ccccc2C(=O)N1C/C=N/NS(=O)(=O)c1cccc([N+](=O)[O-])c1 |  | > 100 |  | > 100 | > 100 | > 100 | > 100 |  |  |
| CC(C)(C)CNCCO |  |  |  |  |  |  |  | > 100 |  |
| CC(C)CC(NC(=O)C(O)C(N)Cc1ccccc1)C(=O)O (stereo not drawn) |  |  |  |  |  |  |  | > 100 |  |
| NCCNCCNCc1c2ccccc2c(CNCCNCCN)c2ccccc12 | > 100 | > 100 | > 100 | > 100 |  | > 100 | > 100 |  |  |
| CC[O-].CC[O-].[O-]c1ccccc1C=NC12CC3CC(CC(C3)C1)C2.[O-]c1ccccc1C=NC12CC3CC(CC(C3)C1)C2.[Ti+4] | > 100 |  | > 100 | > 100 | > 100 | > 100 | > 100 |  | GI50 (SNB-78 CNS): > 100 µM; GI50 (RXF-631 renal): 29.4 µM; TGI (RXF-631 renal): > 100 µM; GI50 (LXFL 529 NSCLC): 23.5 µM; GI50 (HOP-18 NSCLC): 85.5 µM; GI50 (DMS 114 small cell lung): 23.4 µM; GI50 (DMS 273 small cell lung): > 100 µM; GI50 (KM20L2 colon): 45.6 µM |
| CS(=O)(=O)N(CCC#N)c1ccc(/C=C2\N=C(c3ccccc3Cl)OC2=O)cc1 | > 100 | > 100 |  | > 100 | > 100 | > 100 | > 100 |  |  |
| O=S1(=O)[C@H](c2ccccc2)c2c(-c3ccccc3)sc(-c3ccccc3)c2[C@@H]1c1ccccc1 |  |  | > 100 | > 100 | > 100 | > 100 | > 100 |  |  |
| CC1=NC2(C(=O)O)C3(C(=O)O)N=C(C)OC3(C(F)(F)F)C2(C(F)(F)F)O1 (stereo not drawn) | > 100 | > 100 | > 100 | > 100 | > 100 | > 100 |  |  |  |
| CCN(CC)C(=O)c1cccc2c(OC)ccc(OC)c12 |  |  | > 100 | > 100 | > 100 | > 100 | > 100 |  |  |
